Tests used:
Assay type in all cases: functional
[1] = test system: Escherichia coli; test: Antibacterial activity against multidrug-resistant Escherichia coli 5237 after 16 to 20 hrs by agar dilution method
[2] = test system: Escherichia coli; test: Antibacterial activity against multidrug-resistant Escherichia coli 5353 after 16 to 20 hrs by agar dilution method
[3] = test system: Escherichia coli; test: Antibacterial activity against multidrug-resistant Escherichia coli 5364 after 16 to 20 hrs by agar dilution method
[4] = test system: Escherichia coli; test: Antibacterial activity against multidrug-resistant Escherichia coli 5539 after 16 to 20 hrs by agar dilution method
[5] = test system: Pseudomonas aeruginosa; test: Antibacterial activity against multidrug-resistant Pseudomonas aeruginosa 5215 after 16 to 20 hrs by agar dilution method
[6] = test system: Pseudomonas aeruginosa; test: Antibacterial activity against multidrug-resistant Pseudomonas aeruginosa 5298 after 16 to 20 hrs by agar dilution method
[7] = test system: Pseudomonas aeruginosa; test: Antibacterial activity against multidrug-resistant Pseudomonas aeruginosa 5313 after 16 to 20 hrs by agar dilution method
[8] = test system: Pseudomonas aeruginosa; test: Antibacterial activity against multidrug-resistant Pseudomonas aeruginosa 5510 after 16 to 20 hrs by agar dilution method
[9] = test system: Pseudomonas aeruginosa; test: Antibacterial activity against multidrug-resistant Pseudomonas aeruginosa 5585 after 16 to 20 hrs by agar dilution method

Measured: MIC

CCC(C)CCC(O)CC(=O)N[C@H](CCN)C(=O)N[C@H]1CCNC(=O)[C@H](CC(C)C)NC(=O)[C@H](CCN)NC(=O)[C@H](CCN)NC(=O)[C@@H](Cc2ccccc2)NC(=O)[C@H](CC(C)C)NC(=O)[C@H](CCN)NC1 (some centres undefined)
2 to 4 µg/mL: all assays above

— ChEMBL document CHEMBL4219042, “Advances in macrocyclic peptide-based antibiotics” (2018)
